Values of other authors in US4894235A, “Nifedipine-containing form of administration and method for its production” (Dr. Rentschler, Arzneimmittel GmbH & Co., priority 1984, dated 1990).

How the values were obtained:
[1] = influence of light
[2] = Ramsch, Selecta 10, p. 860, 1983

For `COC(=O)C1=C(C)NC(C)=C(C(=O)OC)C1c1ccccc1[N+](=O)[O-]` [Nifedipine, 1,4-dihydro-2,6-dimethyl-4-(2-nitrophenyl)-3,5-pyridine-dicarboxylic acid-dimethylester], the photo-sensitivity [1] is given as “very photo-sensitive” and the “lower limit for blood plasma levels” value [2] is given as 10 to 15 nanograms per milliliter.
